Laboratory results as given in PubChem BioAssay AID248 (DTP/NCI, 2004).
Several values for one entry are separate records, joined by “and”; a condition that tells them apart may be missing. Equal values may be shown once. Toxic doses and inconclusive results are not listed. Rule as the data show it: active = T/C of 150% or more; inactive = T/C below 125%.

Test system: L1210 leukemia ip in BDF1 mice, survival T/C
Assay: NCI In Vivo Anticancer Drug Screen. Data for tumor model L1210 Leukemia (intraperitoneal) in B6D2F1 (BDF1) mice
Settings: endpoint: mean survival time, higher = longer survival
How it was run: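 Antitumor effect is assessed in tumor-bearing animals. Survival in the compound arm is compared with a vehicle-dosed control arm and expressed as their quotient.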

[1] = dose: 100.0 mg/kg/injection, schedule: Q04DX003 (ip), vehicle: Klucel (hydroxypropylcellulose) (HPC)
[2] = dose: 200.0 mg/kg/injection, schedule: Q04DX002 (ip), vehicle: Klucel (hydroxypropylcellulose) (HPC)
[3] = dose: 100.0 mg/kg/injection, schedule: Q01DX009 (ip), vehicle: saline with Tween-80
[4] = dose: 200.0 mg/kg/injection, schedule: Q01DX009 (ip), vehicle: saline with Tween-80
[5] = dose: 100.0 mg/kg/injection, schedule: Q01DX001 (ip), vehicle: saline with Tween-80
[6] = dose: 100.0 mg/kg/injection, schedule: Q04DX002 (ip), vehicle: Klucel (hydroxypropylcellulose) (HPC)
[7] = dose: 100.0 mg/kg/injection, schedule: Q04DX002 (ip), vehicle: saline with Tween-80
[8] = dose: 200.0 mg/kg/injection, schedule: Q01DX001 (ip), vehicle: saline with Tween-80
[9] = dose: 200.0 mg/kg/injection, schedule: Q04DX002 (ip), vehicle: saline with Tween-80
[10] = dose: 400.0 mg/kg/injection, schedule: Q01DX001 (ip), vehicle: saline with Tween-80
[11] = dose: 400.0 mg/kg/injection, schedule: Q04DX002 (ip), vehicle: Klucel (hydroxypropylcellulose) (HPC)
[12] = dose: 400.0 mg/kg/injection, schedule: Q04DX002 (ip), vehicle: saline with Tween-80
[13] = dose: 100.0 mg/kg/injection, schedule: Q01DX009 (ip), vehicle: Klucel (hydroxypropylcellulose) (HPC)
[14] = dose: 200.0 mg/kg/injection, schedule: Q01DX009 (ip), vehicle: Klucel (hydroxypropylcellulose) (HPC)
[15] = dose: 400.0 mg/kg/injection, schedule: Q01DX009 (ip), vehicle: Klucel (hydroxypropylcellulose) (HPC)
[16] = dose: 100.0 mg/kg/injection, schedule: Q04DX003 (ip), vehicle: saline with Tween-80
[17] = dose: 200.0 mg/kg/injection, schedule: Q04DX003 (ip), vehicle: saline with Tween-80
[18] = dose: 400.0 mg/kg/injection, schedule: Q01DX009 (ip), vehicle: saline with Tween-80
[19] = dose: 400.0 mg/kg/injection, schedule: Q04DX003 (ip), vehicle: saline with Tween-80

Measured: T/C

CCOCCN1CCN(CCCN2c3ccccc3Sc3ccc(C(F)(F)F)cc32)CC1
inactive: dose: 0.19 mg/kg/injection, schedule: Q01DX009 (ip), vehicle: water 95 % of control | dose: 0.39 mg/kg/injection, schedule: Q01DX009 (ip), vehicle: water 98 % of control | dose: 0.78 mg/kg/injection, schedule: Q01DX009 (ip), vehicle: water 111 % of control | dose: 1.56 mg/kg/injection, schedule: Q01DX009 (ip), vehicle: water 110 % of control | dose: 22.0 mg/kg/injection, schedule: Q04DX003 (ip), vehicle: other 122 % of control | dose: 100.0 mg/kg/injection, schedule: Q04DX003 (ip), vehicle: water 98 % of control

CCC(=O)OC1(c2ccccc2)CCN(CCC(=O)c2ccccc2)CC1
inactive: dose: 25.0 mg/kg/injection, schedule: Q04DX003 (ip), vehicle: Klucel (hydroxypropylcellulose) (HPC) 103 % of control | dose: 50.0 mg/kg/injection, schedule: Q04DX003 (ip), vehicle: Klucel (hydroxypropylcellulose) (HPC) 101 % of control | [1] 95 % of control and 98 % of control

CCC1(Br)OC1=O (stereo unspecified)
inactive: dose: 50.0 mg/kg/injection, schedule: Q01DX009 (ip), vehicle: acetone 100 % of control | dose: 100.0 mg/kg/injection, schedule: Q01DX009 (ip), vehicle: acetone 99 % of control | dose: 100.0 mg/kg/injection, schedule: Q04DX003 (ip), vehicle: acetone 97 % of control | dose: 200.0 mg/kg/injection, schedule: Q04DX003 (ip), vehicle: acetone 98 % of control

N#Cc1c(C#N)c(N)n(N)c1N
inactive: [2] 114 % of control

CN=C1C2CCC(C2)CC1(O)c1ccccc1 (stereo unspecified)
inactive: dose: 50.0 mg/kg/injection, schedule: Q01DX001 (ip), vehicle: saline 102 % of control | dose: 100.0 mg/kg/injection, schedule: Q01DX001 (ip), vehicle: saline 102 % of control

C=CS(=O)(=O)CCCC
inactive: [3] 97 % of control | [4] 101 % of control

Cc1cccc(OC(=O)Nc2ccc(Cl)cc2)c1
inactive: [5] 93 % of control | [3] 89 % of control | [6] 88 % of control | [7] 100 % of control and 92 % of control | [8] 90 % of control | [4] 93 % of control | [2] 98 % of control | [9] 107 % of control and 90 % of control | [10] 90 % of control | [11] 109 % of control | [12] 113 % of control and 114 % of control

CC(=O)c1cc2cc(Cl)cc(Cl)c2oc1=O
inactive: [3] 94 % of control | [7] 95 % of control | [4] 91 % of control | [9] 100 % of control | [12] 92 % of control

Cc1nc(-c2ccc(N=Cc3ccc(N(CCOS(C)(=O)=O)CCOS(C)(=O)=O)cc3C)cc2)c(C)s1
inactive: dose: 5.0 mg/kg/injection, schedule: Q01DX009 (ip), vehicle: Klucel (hydroxypropylcellulose) (HPC) 120 % of control | dose: 10.0 mg/kg/injection, schedule: Q01DX009 (ip), vehicle: Klucel (hydroxypropylcellulose) (HPC) 120 % of control | dose: 20.0 mg/kg/injection, schedule: Q01DX001 (ip), vehicle: Klucel (hydroxypropylcellulose) (HPC) 121 % of control | dose: 26.6 mg/kg/injection, schedule: Q01DX001 (ip), vehicle: Klucel (hydroxypropylcellulose) (HPC) 108 % of control | dose: 40.0 mg/kg/injection, schedule: Q01DX001 (ip), vehicle: Klucel (hydroxypropylcellulose) (HPC) 119 % of control | dose: 60.0 mg/kg/injection, schedule: Q01DX001 (ip), vehicle: Klucel (hydroxypropylcellulose) (HPC) 111 % of control

CC1NC(=O)NC1=O (stereo unspecified)
inactive: [13] 103 % of control | [1] 98 % of control | [14] 95 % of control | dose: 200.0 mg/kg/injection, schedule: Q04DX003 (ip), vehicle: Klucel (hydroxypropylcellulose) (HPC) 98 % of control | [15] 100 % of control | dose: 400.0 mg/kg/injection, schedule: Q04DX003 (ip), vehicle: Klucel (hydroxypropylcellulose) (HPC) 101 % of control

C=C1c2ccccc2N(C)C1(COc1ccc(Cl)cc1)OC(=O)c1cccc(Cl)c1 (stereo unspecified)
inactive: dose: 100.0 mg/kg/injection, schedule: Q04DX002 (ip), vehicle: saline 88 % of control | dose: 200.0 mg/kg/injection, schedule: Q04DX002 (ip), vehicle: saline 98 % of control | dose: 400.0 mg/kg/injection, schedule: Q04DX002 (ip), vehicle: saline 98 % of control

CC(=O)C(Br)CC(C)C (stereo unspecified)
inactive: dose: 75.0 mg/kg/injection, schedule: Q01DX001 (ip), vehicle: saline 102 % of control | dose: 150.0 mg/kg/injection, schedule: Q01DX001 (ip), vehicle: saline 105 % of control | dose: 300.0 mg/kg/injection, schedule: Q01DX001 (ip), vehicle: saline 100 % of control

Nc1nc(=O)c2[nH]cnc2n1O
inactive: dose: 12.5 mg/kg/injection, schedule: Q01DX009 (ip), vehicle: saline with Tween-80 96 % of control | dose: 16.5 mg/kg/injection, schedule: Q01DX009 (ip), vehicle: saline 112 % of control | dose: 25.0 mg/kg/injection, schedule: Q01DX009 (ip), vehicle: saline 100 % of control | dose: 50.0 mg/kg/injection, schedule: Q01DX009 (ip), vehicle: saline with Tween-80 88 % of control | dose: 55.0 mg/kg/injection, schedule: Q01DX009 (ip), vehicle: saline 110 % of control
active: dose: 25.0 mg/kg/injection, schedule: Q01DX009 (ip), vehicle: saline with Tween-80 215 % of control

CCOCCc1ccccn1
inactive: dose: 100.0 mg/kg/injection, schedule: Q01DX009 (ip), vehicle: saline 113 % of control | dose: 100.0 mg/kg/injection, schedule: Q04DX003 (ip), vehicle: saline 103 % of control | dose: 200.0 mg/kg/injection, schedule: Q01DX009 (ip), vehicle: saline 100 % of control | dose: 200.0 mg/kg/injection, schedule: Q04DX003 (ip), vehicle: saline 103 % of control | dose: 400.0 mg/kg/injection, schedule: Q01DX009 (ip), vehicle: saline 96 % of control | dose: 400.0 mg/kg/injection, schedule: Q04DX003 (ip), vehicle: saline 101 % of control

CSc1ccc(NC(=O)C(Cl)Cl)cc1
inactive: [13] 95 % of control | [6] 97 % of control | [14] 105 % of control | [15] 101 % of control | [11] 93 % of control

O=C(Nc1ccccc1Cl)NC1CCCCC1
inactive: [13] 100 % of control | [6] 95 % of control | [14] 97 % of control | [2] 100 % of control | [15] 91 % of control | [11] 95 % of control

COc1ccc(CNCCNCc2ccc(OC)c(OC)c2)cc1OC
inactive: [3] 97 % of control | [16] 100 % of control | [4] 102 % of control | [17] 93 % of control | [18] 106 % of control | [19] 105 % of control

CC1(C)N=C(N)N=C(N)N1c1cccc(C(=O)Nc2ccc(S(=O)(=O)F)cc2)c1
inactive: dose: 0.8 mg/kg/injection, schedule: Q01DX009 (ip), vehicle: saline 98 % of control | dose: 4.0 mg/kg/injection, schedule: Q01DX009 (ip), vehicle: saline 101 % of control | dose: 20.0 mg/kg/injection, schedule: Q01DX009 (ip), vehicle: saline 98 % of control

Cc1ccc(S(=O)(=O)N/N=C(/c2ccccc2)c2ccsc2C)cc1
inactive: [5] 98 % of control | [8] 88 % of control | [10] 92 % of control

O=C(NC(=S)Nc1ccc(O)cc1)c1cccc([N+](=O)[O-])c1
inactive: [5] 87 % of control | [3] 99 % of control and 103 % of control | [7] 101 % of control | [16] 94 % of control | [8] 91 % of control | [4] 92 % of control and 100 % of control | [9] 97 % of control | [17] 96 % of control | [10] 101 % of control | [18] 92 % of control and 100 % of control | [12] 90 % of control | [19] 95 % of control

O=[N+]([O-])c1ccc(NN=C2c3ccccc3Cc3ccccc32)c([N+](=O)[O-])c1
inactive: [7] 87 % of control | [12] 94 % of control
